Where a SMILES comes first, the peptide text is derived from it. Bridges are numbered along the chain shown (N, C = ends). [ ]: non-standard residue; d: D form. R8 = C=CCCCCCC[C@@](C)(N)C(=O)O; S5 = C=CCCC[C@](C)(N)C(=O)O
What was measured:
MDM2 = MDM2 (Homo sapiens, UniProt Q00987); assay: Competitive fluorescence polarization assay for MDM2; type: binding; conditions: competitive FP assay, MDM2; for IC50: read-out: IC50 (MDM2); for Ki: read-out: Ki (MDM2)
MDMX = molecular target: T1, MDMX (Homo sapiens, UniProt O15151); assay: Competitive fluorescence polarization assay for MDMX; type: binding; conditions: competitive FP assay; for IC50: read-out: IC50 (MDMX); for Ki: read-out: Ki (MDMX)
T1 sequence (O15151 1-125): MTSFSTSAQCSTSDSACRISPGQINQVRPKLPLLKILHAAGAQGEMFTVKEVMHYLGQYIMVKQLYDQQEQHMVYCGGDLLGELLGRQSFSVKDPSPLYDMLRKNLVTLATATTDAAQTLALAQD

SJSA-1 cells = assay: Cell lysis by peptidomimetic macrocycles (LDH release); type: cell-based; conditions: 1 h at 37C

Sequence of MDM2 (Q00987 1-125): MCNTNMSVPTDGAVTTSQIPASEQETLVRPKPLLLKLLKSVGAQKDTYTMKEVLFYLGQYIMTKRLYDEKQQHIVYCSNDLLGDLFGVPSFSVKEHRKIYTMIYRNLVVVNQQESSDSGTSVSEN

Row | Compound | IC50 (MDM2) | Ki (MDM2) | IC50 (MDMX) | Ki (MDMX) | 6.25 uM % Lysed cells (1 h LDH) (SJSA-1 cells) | 25 uM % Lysed cells (1 h LDH) (SJSA-1 cells) | 50 uM % Lysed cells (1 h LDH) (SJSA-1 cells)
1 | CCCC[C@H](NC(=O)[C@H](C)NC(=O)[C@H](C)NC(=O)[C@]1(C)CCCC=CCCCCCC[C@@](C)(NC(=O)[C@H](Cc2ccccc2)NC(=O)[C@@H](NC(=O)[C@H](CC(C)C)NC(C)=O)[C@@H](C)O)C(=O)N[C@@H](C)C(=O)N[C@@H](Cc2ccc(O)cc2)C(=O)N[C@@H](Cc2c[nH]c3ccccc23)C(=O)N[C@@H](C)C(=O)N[C@@H](CCC(N)=O)C(=O)N[C@@H](CC(C)C)C(=O)N1)C(=O)N[C@H](C)C(N)=O (single isomer, unassigned) [compound 75] | 0.01 to 0.1 µM | < 0.01 µM | 0.1 to 1 µM | 0.01 to 0.1 µM | −1% | 1% | 1%
2 | CC(=O)N[C@@H](CC(C)C)C(=O)N[C@H](C(=O)N[C@@H](Cc1ccccc1)C(=O)N[C@]1(C)CCCCCCC=CCCC[C@@](C)(C(=O)N[C@@H](CO)C(=O)N[C@@H](C)C(=O)N[C@@H](C)C(N)=O)NC(=O)[C@H](C2CCCC2)NC(=O)[C@H](CCC(N)=O)NC(=O)[C@H](C)NC(=O)[C@H](Cc2c[nH]c3ccccc23)NC(=O)[C@H](Cc2ccc(O)cc2)NC(=O)[C@H](CCC(=O)O)NC1=O)[C@@H](C)O (single isomer, unassigned) [compound 150] |  |  | 0.1 to 1 µM | 0.01 to 0.1 µM | −1% | 0% | 2%
3 | CC(=O)N[C@@H](CC(C)C)C(=O)N[C@H](C(=O)N[C@@H](Cc1ccccc1)C(=O)N[C@]1(C)CCCCCCC=CCCC[C@@](C)(C(=O)N[C@@H](CO)C(=O)N[C@@H](C)C(=O)N[C@@H](C)C(N)=O)NC(=O)[C@H](CC(C)C)NC(=O)[C@H](CCC(N)=O)NC(=O)[C@H](C)NC(=O)[C@H](Cc2c[nH]c3ccccc23)NC(=O)[C@H](Cc2ccc(C(=O)O)cc2)NC(=O)[C@H](C)NC1=O)[C@@H](C)O (single isomer, unassigned) [compound 169] | < 0.01 µM | < 0.01 µM | 0.01 to 0.1 µM | 0.01 to 0.1 µM | 2% | 3% | 7%
4 | CC[C@H](C)[C@H](NC(=O)[C@H](C)NC(=O)[C@H](C)NC(=O)[C@]1(C)CCCC=CCCCCCC[C@@](C)(NC(=O)[C@H](Cc2ccccc2)NC(=O)[C@@H](NC(=O)[C@H](CC(C)C)NC(C)=O)[C@@H](C)O)C(=O)N[C@@H](C)C(=O)N[C@@H](Cc2ccc(C(=O)O)cc2)C(=O)N[C@@H](Cc2c[nH]c3ccccc23)C(=O)N[C@@H](C)C(=O)N[C@@H](CCC(N)=O)C(=O)N[C@@H](CC(C)C)C(=O)N1)C(=O)N[C@H](C)C(N)=O (single isomer, unassigned) [compound 182] | < 0.01 µM | < 0.01 µM | 0.1 to 1 µM | 0.01 to 0.1 µM | 0% | 3% | 6%
5 | CC[C@H](C)[C@H](NC(=O)[C@H](C)NC(=O)[C@H](C)NC(=O)[C@]1(C)CCCC=CCCCCCC[C@@](C)(NC(=O)[C@H](Cc2ccccc2)NC(=O)[C@@H](NC(=O)[C@H](CC(C)C)NC(C)=O)[C@@H](C)O)C(=O)N[C@@H](CCC(=O)O)C(=O)N[C@@H](Cc2ccc(C(=O)O)cc2)C(=O)N[C@@H](Cc2c[nH]c3cc(Cl)ccc23)C(=O)N[C@@H](C)C(=O)N[C@@H](CCC(N)=O)C(=O)N[C@@H](CC2CCC2)C(=O)N1)C(=O)N[C@H](C)C(N)=O (single isomer, unassigned) [compound 335] |  |  |  |  | 0% | 0% | 1%
6 | CC(=O)N[C@@H](CCC(=O)O)C(=O)N[C@H](C(=O)N[C@@H](Cc1ccccc1)C(=O)N[C@]1(C)CCCCCCC=CCCC[C@@](C)(C(=O)N[C@@H](C)C(=O)N[C@@H](C)C(=O)N[C@@H](C)C(=O)N[C@@H](C)C(=O)N[C@@H](C)C(=O)N[C@H](C)C(N)=O)NC(=O)[C@H](CC(C)C)NC(=O)[C@H](CCC(N)=O)NC(=O)[C@H](C)NC(=O)[C@H](Cc2c[nH]c3ccccc23)NC(=O)[C@H](Cc2ccc(O)cc2)NC(=O)[C@H](CCC(=O)O)NC1=O)[C@@H](C)O (single isomer, unassigned) [compound 340] |  |  |  |  | 0% | 0% | 0%
7 | CC(=O)N[C@@H](CC(C)C)C(=O)N[C@H](C(=O)N[C@@H](Cc1ccccc1)C(=O)N[C@]1(C)CCCCCCC=CCCC[C@@](C)(C(=O)N[C@@H](C)C(=O)N[C@@H](Cc2c[nH]cn2)C(=O)N[C@@H](Cc2ccccc2)C(=O)N[C@@H](C)C(N)=O)NC(=O)[C@H](CC(C)C)NC(=O)[C@H](CCC(N)=O)NC(=O)[C@H](C(C)C)NC(=O)[C@H](Cc2c[nH]c3ccccc23)NC(=O)[C@H](Cc2c[nH]cn2)NC(=O)[C@H](C)NC1=O)[C@@H](C)O [compound 190] (Ac-LTF[R8]AHWVQL[S5]AHFA-NH2; staple 4-11) |  |  |  |  | −1% | 0% | 1%
8 | CC(C)CC[C@@H]1NC(=O)[C@H](CCC(N)=O)NC(=O)[C@H](C)NC(=O)[C@H](Cc2c[nH]c3ccccc23)NC(=O)[C@H](Cc2ccc(O)cc2)NC(=O)[C@H](CCC(=O)O)NC(=O)[C@](C)(NC(=O)[C@H](Cc2ccccc2)NC(=O)[C@@H](NC(=O)[C@H](CC(C)C)NC(=O)CN(C)C)[C@@H](C)O)CCCCCCC=CCCC[C@@](C)(C(=O)N[C@@H](CO)C(=O)N[C@@H](C)C(=O)N[C@@H](C)C(N)=O)NC1=O [compound 279] |  |  | 0.01 to 0.1 µM | 0.01 to 0.1 µM | 6% | 5% | 6%
9 | CCCCCC(=O)N[C@@H](CC(C)C)C(=O)N[C@H](C(=O)N[C@@H](Cc1ccccc1)C(=O)N[C@]1(C)CCCCCCC=CCCC[C@@](C)(C(=O)N[C@@H](CO)C(=O)N[C@@H](C)C(=O)N[C@@H](C)C(N)=O)NC(=O)[C@H](CCC(C)C)NC(=O)[C@H](CCC(N)=O)NC(=O)[C@H](C)NC(=O)[C@H](Cc2c[nH]c3ccccc23)NC(=O)[C@H](Cc2ccc(O)cc2)NC(=O)[C@H](CCC(=O)O)NC1=O)[C@@H](C)O [compound 280] |  |  | 0.1 to 1 µM | 0.01 to 0.1 µM | 5% | 6% | 18%
10 | CC(C)CC[C@@H]1NC(=O)[C@H](CCC(N)=O)NC(=O)[C@H](C)NC(=O)[C@H](Cc2c[nH]c3ccccc23)NC(=O)[C@H](Cc2ccc(O)cc2)NC(=O)[C@H](CCC(=O)O)NC(=O)[C@](C)(NC(=O)[C@H](Cc2ccccc2)NC(=O)[C@@H](NC(=O)[C@H](CC(C)C)NC(=O)C(C)(C)C)[C@@H](C)O)CCCCCCC=CCCC[C@@](C)(C(=O)N[C@@H](CO)C(=O)N[C@@H](C)C(=O)N[C@@H](C)C(N)=O)NC1=O [compound 284] |  |  | 0.1 to 1 µM | 0.01 to 0.1 µM | 5% | 5% | 6%
11 | CCCC[C@H](NC(=O)[C@H](C)NC(=O)[C@H](C)NC(=O)[C@]1(C)CCCC=CCCCCCC[C@@](C)(NC(=O)[C@H](Cc2ccccc2)NC(=O)[C@@H](NC(=O)[C@H](CC(C)C)NC(C)=O)[C@@H](C)O)C(=O)N[C@@H](C)C(=O)N[C@@H](Cc2ccc(O)cc2)C(=O)N[C@@H](Cc2c[nH]c3ccccc23)C(=O)N[C@@H](Cc2cc(=O)oc3cc(OC)c(OC)cc23)C(=O)N[C@@H](CCC(N)=O)C(=O)N[C@@H](CC(C)C)C(=O)N1)C(=O)N[C@@H](C)C(N)=O [compound 415] |  |  |  |  | 4% | 2% | 2%

From patent US8927500B2, “Peptidomimetic macrocycles” (Aileron Therapeutics, Inc., priority 2012, dated 2015)
